Experimental data as given in US20250353842A1, “BICYCLIC AMINE CDK12 INHIBITORS” (Incyte Corporation, priority 2022, published 2025).

Target: CDK12 complexed with Cyclin K (Homo sapiens (Human), UniProt Q9NYV4)
Assay: CDK enzymatic assay (HTRF, LANCE Ultra kinase assay)
Format: biochemical
Details: 60 minutes pre-incubation, 1 mM ATP
Experimental: The following activity of the CDK enzymes in complex with their respective cyclins we assayed: CDK1 complexed with Cyclin B1; CDK2 complexed with Cyclin E1; CDK4 complexed with Cyclin D1; CDK6 complexed with Cyclin D1; CDK6 complexed with Cyclin D3; CDK9 complexed with Cyclin T1; CDK7 complexed with Cyclin H/MAT1; CDK2 complexed with Cyclin A2; CDK5 complexed with p35; CDK12 complexed with Cyclin K; CDK13 complexed with Cyclin K. These in vitro enzyme activity are assayed using homogeneous time-resolved energy transfer (HTRF), which measures phosphorylation of a peptide substrate. The LANCE® Ultra kinase assay (PerkinElmer) uses a ULight™-labeled EIF4E-binding protein 1 (THR37/46) peptide (DYSTTPGGTLFSTTPGTRI) (SEQ ID NO: 1) substrate and a Europium-labeled anti-phospho-4E-BP1 antibody (CDK2, CDK1, CDK4, CDK6, CDK9, CDK12, CDK13) or ULight™-labeled Myelin Basic Protein peptide (VTPRTPPP) (SEQ ID NO: 2) substrate and a Europium-labeled anti-phospho-MBP antibody (CDK7). Each CDK enzyme activity assays utilized human CDK co-expressed as N-terminal GST-tagged protein with its full length cyclin partner using a baculovirus expression system.
Enzyme was pre-incubated with compounds for 30 minutes (CDK1,2,4,6,9) or 60 minutes (CDK7, CDK12, CDK13) prior to addition of ATP and Ulight-peptide (1 mM and 50 nM final, respectively), in assay buffer containing 50 mM HEPES pH 7.5, 1 mM EGTA, 10 mM MgCl2, 2 mM DTT, 0.05 mg/mL BSA, and 0.01% Tween 20.
The reaction was then incubated for 60-90 minutes at room temperature. The reactions were stopped by the addition of EDTA and Europium labeled antibody, for a final concentration of 15 mM and 1.0-1.5 nM, respectively. HTRF signals were read after 15-120 minutes. A ratio of fluorescence transferred to the labeled substrate (665 nm) relative to fluorescence of the Europium donor (620 nm) represents the extent of phosphorylation. Ratios for treated wells were normalized to DMSO only (100% activity) and no enzyme (0% activity) controls. Normalized data was analyzed using a three or four parameter dose response curve to determine IC50 for each compound and are shown in Table A. Control reference inhibitors were included on each plate.

CDK12 complexed with Cyclin K, sequence (Q9NYV4 whole entry): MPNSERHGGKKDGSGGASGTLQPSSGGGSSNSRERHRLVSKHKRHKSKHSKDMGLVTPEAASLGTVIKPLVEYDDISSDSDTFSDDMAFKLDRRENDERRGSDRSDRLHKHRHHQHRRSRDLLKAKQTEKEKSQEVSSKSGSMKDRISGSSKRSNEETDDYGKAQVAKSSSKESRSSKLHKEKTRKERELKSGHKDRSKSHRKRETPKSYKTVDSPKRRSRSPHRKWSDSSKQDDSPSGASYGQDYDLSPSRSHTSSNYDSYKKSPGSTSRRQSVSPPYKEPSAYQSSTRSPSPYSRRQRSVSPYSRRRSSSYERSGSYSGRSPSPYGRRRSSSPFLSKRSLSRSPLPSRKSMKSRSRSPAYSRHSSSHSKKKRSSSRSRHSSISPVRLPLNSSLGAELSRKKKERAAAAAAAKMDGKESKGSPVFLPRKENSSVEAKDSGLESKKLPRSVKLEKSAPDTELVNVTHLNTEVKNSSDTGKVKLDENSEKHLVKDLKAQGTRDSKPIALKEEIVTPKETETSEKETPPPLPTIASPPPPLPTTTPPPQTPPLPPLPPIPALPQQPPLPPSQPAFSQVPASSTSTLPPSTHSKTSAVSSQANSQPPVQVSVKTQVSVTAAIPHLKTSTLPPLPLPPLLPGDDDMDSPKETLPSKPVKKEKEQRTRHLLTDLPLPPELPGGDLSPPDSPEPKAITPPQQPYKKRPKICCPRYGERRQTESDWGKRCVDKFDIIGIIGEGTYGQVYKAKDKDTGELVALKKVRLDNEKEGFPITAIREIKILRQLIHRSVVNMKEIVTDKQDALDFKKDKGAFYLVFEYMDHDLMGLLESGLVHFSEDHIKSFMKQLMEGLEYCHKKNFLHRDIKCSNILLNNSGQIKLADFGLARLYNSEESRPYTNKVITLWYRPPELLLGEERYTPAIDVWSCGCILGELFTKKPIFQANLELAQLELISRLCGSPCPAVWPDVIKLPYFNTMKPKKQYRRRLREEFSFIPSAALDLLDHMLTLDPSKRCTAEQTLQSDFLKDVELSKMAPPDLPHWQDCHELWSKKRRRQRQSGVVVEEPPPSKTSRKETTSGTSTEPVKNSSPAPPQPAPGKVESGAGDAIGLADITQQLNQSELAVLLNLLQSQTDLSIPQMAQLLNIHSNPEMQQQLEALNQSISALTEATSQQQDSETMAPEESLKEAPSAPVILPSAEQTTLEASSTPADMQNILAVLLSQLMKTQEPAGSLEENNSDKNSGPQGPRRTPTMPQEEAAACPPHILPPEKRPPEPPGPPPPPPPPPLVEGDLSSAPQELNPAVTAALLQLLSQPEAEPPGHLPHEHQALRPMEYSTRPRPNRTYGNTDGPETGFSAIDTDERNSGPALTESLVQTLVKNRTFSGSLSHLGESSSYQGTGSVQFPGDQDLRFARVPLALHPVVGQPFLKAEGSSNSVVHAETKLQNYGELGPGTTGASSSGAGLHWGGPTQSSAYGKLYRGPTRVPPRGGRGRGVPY
CDK12 complexed with Cyclin K, sequence (O75909 whole entry partner): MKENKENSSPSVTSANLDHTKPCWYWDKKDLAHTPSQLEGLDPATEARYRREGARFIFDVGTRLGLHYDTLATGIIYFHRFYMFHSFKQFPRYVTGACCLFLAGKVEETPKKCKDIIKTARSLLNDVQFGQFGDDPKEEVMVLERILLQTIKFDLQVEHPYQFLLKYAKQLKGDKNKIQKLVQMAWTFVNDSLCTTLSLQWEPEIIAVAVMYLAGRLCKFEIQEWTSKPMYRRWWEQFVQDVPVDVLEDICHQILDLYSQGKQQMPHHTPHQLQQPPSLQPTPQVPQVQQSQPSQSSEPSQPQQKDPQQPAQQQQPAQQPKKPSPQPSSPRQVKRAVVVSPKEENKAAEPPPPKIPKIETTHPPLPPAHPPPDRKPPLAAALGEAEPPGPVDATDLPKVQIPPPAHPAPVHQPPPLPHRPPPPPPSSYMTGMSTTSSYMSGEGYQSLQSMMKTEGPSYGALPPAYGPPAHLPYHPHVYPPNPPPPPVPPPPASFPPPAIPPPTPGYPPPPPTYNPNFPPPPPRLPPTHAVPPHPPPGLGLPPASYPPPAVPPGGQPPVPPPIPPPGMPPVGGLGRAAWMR

| IC50 [nM] | SMILES |
| --- | --- |
| < 50 | N#Cc1cnc(N[C@@H]2CCC[C@H](n3cnc4cccnc43)C2)nc1-c1cnn(CC(F)F)c1 [Example 11, 2-(((1R,3S)-3-(3H-Imidazo[4,5-b]pyridin-3-yl)cyclohexyl)amino)-4-(1-(2,2-difluoroethyl)-1H-pyrazol-4-yl)pyrimidine-5-carbonitrile] |
| < 50 | N#Cc1cnc2c(ccn2[C@H]2CCC[C@@H](Nc3ncc(C(F)(F)F)c(-c4cnn(CC(F)F)c4)n3)C2)c1 [Example 15, 1-((1S,3R)-3-((4-(1-(2,2-Difluoroethyl)-1H-pyrazol-4-yl)-5-(trifluoromethyl)pyrimidin-2-yl)amino)cyclohexyl)-1H-pyrrolo[2,3-b]pyridine-5-carbonitrile] |
| 50 to 500 | N#Cc1ccc2c(ccn2[C@H]2CCC[C@@H](Nc3ncc(C(F)(F)F)c(-c4cnn(CC(F)F)c4)n3)C2)c1 [Example 16, 1-((1S,3R)-3-((4-(1-(2,2-Difluoroethyl)-1H-pyrazol-4-yl)-5-(trifluoromethyl)pyrimidin-2-yl)amino)cyclohexyl)-1H-indole-5-carbonitrile] |
| 50 to 500 | Cc1c(-c2nc(N[C@@H]3CCC[C@H](n4cnc5cccnc54)C3)ncc2C#N)cnn1C [Example 17, 2-(((1R,3S)-3-(3H-Imidazo[4,5-b]pyridin-3-yl)cyclohexyl)amino)-4-(1,5-dimethyl-1H-pyrazol-4-yl)pyrimidine-5-carbonitrile] |
| 50 to 500 | Cn1ncc(-c2nc(N[C@@H]3CCC[C@H](n4cnc5cccnc54)C3)ncc2C#N)c1C#N [Example 20, 2-(((1R,3S)-3-(3H-Imidazo[4,5-b]pyridin-3-yl)cyclohexyl)amino)-4-(5-cyano-1-methyl-1H-pyrazol-4-yl)pyrimidine-5-carbonitrile] |
| < 50 | N#Cc1cnc(N[C@@H]2CCC[C@H](n3cnc4cccnc43)C2)nc1-c1c[nH]nc1C1CC1 [Example 21, 2-(((1R,3S)-3-(3H-Imidazo[4,5-b]pyridin-3-yl)cyclohexyl)amino)-4-(3-cyclopropyl-1H-pyrazol-4-yl)pyrimidine-5-carbonitrile] |
| > 500 | Cn1nccc1-c1nc(N[C@@H]2CCC[C@H](n3cnc4cccnc43)C2)ncc1C#N [Example 22, 2-(((1R,3S)-3-(3H-Imidazo[4,5-b]pyridin-3-yl)cyclohexyl)amino)-4-(1-methyl-1H-pyrazol-5-yl)pyrimidine-5-carbonitrile] |
| 50 to 500 | N#Cc1cnc(N[C@@H]2CCC[C@H](n3cnc4cccnc43)C2)nc1-c1cnn2c1OCCC2 [Example 25, 2-(((1R,3S)-3-(3H-Imidazo[4,5-b]pyridin-3-yl)cyclohexyl)amino)-4-(6,7-dihydro-5H-pyrazolo[5,1-b][1,3]oxazin-3-yl)pyrimidine-5-carbonitrile] |
| < 50 | CC(C)n1cnc(-c2nc(N[C@@H]3CCC[C@H](n4cnc5cccnc54)C3)ncc2C#N)c1 [Example 27, 2-(((1R,3S)-3-(3H-Imidazo[4,5-b]pyridin-3-yl)cyclohexyl)amino)-4-(1-isopropyl-1H-imidazol-4-yl)pyrimidine-5-carbonitrile] |
| 50 to 500 | Cc1cnc(-c2nc(N[C@@H]3CCC[C@H](n4cnc5cc(C#N)cnc54)C3)ncc2C#N)n1C [Example 29, 3-((1S,3R)-3-((5-Cyano-4-(1,5-dimethyl-1H-imidazol-2-yl)pyrimidin-2-yl)amino)cyclohexyl)-3H-imidazo[4,5-b]pyridine-6-carbonitrile] |
| 50 to 500 | Cc1c(Nc2nc(N[C@@H]3CCC[C@H](n4cnc5cc(C#N)cnc54)C3)ncc2C#N)cnn1C [Example 30, 3-((1S,3R)-3-((5-Cyano-4-((1,5-dimethyl-1H-pyrazol-4-yl)amino)pyrimidin-2-yl)amino)cyclohexyl)-3H-imidazo[4,5-b]pyridine-6-carbonitrile] |
| < 50 | N#Cc1cnc(N[C@@H]2CCC[C@H](n3cnc4cncc(C#N)c43)C2)nc1-c1cnn(CCO)c1 [Example 32, 1-((1S,3R)-3-((5-Cyano-4-(1-(2-hydroxyethyl)-1H-pyrazol-4-yl)pyrimidin-2-yl)amino)cyclohexyl)-1H-imidazo[4,5-c]pyridine-7-carbonitrile] |
| < 50 | N#Cc1cnc(N[C@@H]2CCC[C@H](n3cnc4cncc(C#N)c43)C2)nc1-c1cnn(C2CC2)c1 [Example 34, 1-((1S,3R)-3-((5-Cyano-4-(1-cyclopropyl-1H-pyrazol-4-yl)pyrimidin-2-yl)amino)cyclohexyl)-1H-imidazo[4,5-c]pyridine-7-carbonitrile] |
| > 500 | N#Cc1cnc2c(c1)ncn2[C@@H]1CCC[C@H](Nc2ncc(C#N)c(-c3cnn(CC(F)F)c3)n2)C1 [Example 35, 3-((1R,3S)-3-((5-Cyano-4-(1-(2,2-difluoroethyl)-1H-pyrazol-4-yl)pyrimidin-2-yl)amino)cyclohexyl)-3H-imidazo[4,5-b]pyridine-6-carbonitrile] |

More lines, now with the values behind:

| SMILES | IC50 [nM] |
| --- | --- |
| FC(F)Cn1cc(-c2nc(N[C@@H]3CCC[C@H](n4cnc5cccnc54)C3)ncc2C(F)(F)F)cn1 [Example 12, N-((1R,3S)-3-(3H-Imidazo[4,5-b]pyridin-3-yl)cyclohexyl)-4-(1-(2,2-difluoroethyl)-1H-pyrazol-4-yl)-5-(trifluoromethyl)pyrimidin-2-amine] | < 50 |
| N#Cc1cnc2c(c1)ncn2[C@H]1CCC[C@@H](Nc2ncc(Cl)c(-c3cnn(CC(F)F)c3)n2)C1 [Example 14, 3-((1S,3R)-3-((5-Chloro-4-(1-(2,2-difluoroethyl)-1H-pyrazol-4-yl)pyrimidin-2-yl)amino)cyclohexyl)-3H-imidazo[4,5-b]pyridine-6-carbonitrile] | < 50 |
| N#Cc1cnc(N[C@@H]2CCC[C@H](n3cnc4cccnc43)C2)nc1-c1cnn2c1CCC2 [Example 18, 2-(((1R,3S)-3-(3H-Imidazo[4,5-b]pyridin-3-yl)cyclohexyl)amino)-4-(5,6-dihydro-4H-pyrrolo[1,2-b]pyrazol-3-yl)pyrimidine-5-carbonitrile] | < 50 |
| Cc1nn(C)cc1-c1nc(N[C@@H]2CCC[C@H](n3cnc4cccnc43)C2)ncc1C#N [Example 19, 2-(((1R,3S)-3-(3H-Imidazo[4,5-b]pyridin-3-yl)cyclohexyl)amino)-4-(1,3-dimethyl-1H-pyrazol-4-yl)pyrimidine-5-carbonitrile] | > 500 |
| Cn1ncc(-c2nc(N[C@@H]3CCC[C@H](n4cnc5cccnc54)C3)ncc2C#N)c1C(F)(F)F [Example 23, 2-(((1R,3S)-3-(3H-Imidazo[4,5-b]pyridin-3-yl)cyclohexyl)amino)-4-(1-methyl-5-(trifluoromethyl)-1H-pyrazol-4-yl)pyrimidine-5-carbonitrile] | 50 to 500 |
| CCn1cc(-c2nc(N[C@@H]3CCC[C@H](n4cnc5cccnc54)C3)ncc2C#N)cn1 [Example 24, 2-(((1R,3S)-3-(3H-Imidazo[4,5-b]pyridin-3-yl)cyclohexyl)amino)-4-(1-ethyl-1H-pyrazol-4-yl)pyrimidine-5-carbonitrile] | < 50 |
| Cn1ncc(-c2nc(N[C@@H]3CCC[C@H](n4cnc5cccnc54)C3)ncc2C#N)c1CO [Example 26, 2-(((1R,3S)-3-(3H-Imidazo[4,5-b]pyridin-3-yl)cyclohexyl)amino)-4-(5-(hydroxymethyl)-1-methyl-1H-pyrazol-4-yl)pyrimidine-5-carbonitrile] | 50 to 500 |
| N#Cc1cnc(N[C@@H]2CCC[C@H](n3cnc4cncc(C#N)c43)C2)nc1-c1cnn(CC(F)F)c1 [Example 31, 1-((1S,3R)-3-((5-Cyano-4-(1-(2,2-difluoroethyl)-1H-pyrazol-4-yl)pyrimidin-2-yl)amino)cyclohexyl)-1H-imidazo[4,5-c]pyridine-7-carbonitrile] | < 50 |
| CC(C)n1cc(-c2nc(N[C@@H]3CCC[C@H](n4cnc5cncc(C#N)c54)C3)ncc2C#N)cn1 [Example 33, 1-((1S,3R)-3-((5-Cyano-4-(1-isopropyl-1H-pyrazol-4-yl)pyrimidin-2-yl)amino)cyclohexyl)-1H-imidazo[4,5-c]pyridine-7-carbonitrile] | < 50 |
| N#Cc1cnc(N[C@@H]2CCC[C@H](n3cnc4cc(F)cc(Cl)c43)C2)nc1-c1cnn(CC(F)F)c1 [Example 36, 2-(((1R,3S)-3-(7-Chloro-5-fluoro-1H-benzo[d]imidazol-1-yl)cyclohexyl)amino)-4-(1-(2,2-difluoroethyl)-1H-pyrazol-4-yl)pyrimidine-5-carbonitrile] | < 50 |
| N#Cc1cnc2c(c1)ncn2[C@H]1CCC[C@@H](Nc2ncc(C#N)c(-c3cnn(C4CCC4)c3)n2)C1 [Example 38, 3-((1S,3R)-3-((5-Cyano-4-(1-cyclobutyl-1H-pyrazol-4-yl)pyrimidin-2-yl)amino)cyclohexyl)-3H-imidazo[4,5-b]pyridine-6-carbonitrile] | < 50 |
